Assay results taken from ChEMBL document CHEMBL1208728, “Design, synthesis, and structure-activity relationships of pyrazole derivatives as potential FabH inhibitors” (Bioorg Med Chem Lett, 2010).
≈ marks a conversion by molar mass, not a printed value.

Legend:
Format in all cases: functional
Bacillus subtilis = test: Antimicrobial activity against Bacillus subtilis ATCC 6633 by MTT assay
Escherichia coli = test: Antimicrobial activity against Escherichia coli ATCC 35218 by MTT assay
Enterococcus faecalis = test: Antimicrobial activity against Streptococcus faecalis ATCC 9790 by MTT assay
Staphylococcus aureus = test: Antimicrobial activity against Staphylococcus aureus ATCC 6538 by MTT assay
Pseudomonas aeruginosa = test: Antimicrobial activity against Pseudomonas aeruginosa ATCC 13525 by MTT assay
Enterobacter cloacae = test: Antimicrobial activity against Enterobacter cloacae ATCC 13047 by MTT assay

SMILES	MIC (Bacillus subtilis)	MIC (Escherichia coli)	MIC (Enterococcus faecalis)	MIC (Staphylococcus aureus)	MIC (Pseudomonas aeruginosa)	MIC (Enterobacter cloacae)
CC(=O)N1N=C(c2ccc(C)c(C)c2)CC1c1ccc(F)cc1 (stereo unspecified)	25 µg/mL (≈ 80.5 µM)	25 µg/mL (≈ 80.5 µM)	12.5 µg/mL (≈ 40.3 µM)	1.56 µg/mL (≈ 5.03 µM)	6.25 µg/mL (≈ 20.1 µM)	12.5 µg/mL (≈ 40.3 µM)
CC(=O)N1N=C(c2ccc(C)c(C)c2)CC1c1ccc(Cl)cc1 (stereo unspecified)	> 50 µg/mL	12.5 µg/mL (≈ 38.2 µM)	50 µg/mL (≈ 153 µM)	1.56 µg/mL (≈ 4.78 µM)	6.25 µg/mL (≈ 19.1 µM)	6.25 µg/mL (≈ 19.1 µM)
CC(=O)N1N=C(c2ccc(C)c(C)c2)CC1c1ccc(Br)cc1 (stereo unspecified)	25 µg/mL (≈ 67.3 µM)	25 µg/mL (≈ 67.3 µM)	50 µg/mL (≈ 135 µM)	12.6 µg/mL (≈ 33.9 µM)	12.5 µg/mL (≈ 33.7 µM)	3.12 µg/mL (≈ 8.42 µM)
CC(=O)N1N=C(c2ccc(Br)cc2)CC1c1ccc(C)cc1 (stereo unspecified)	25 µg/mL (≈ 70 µM)	25 µg/mL (≈ 70 µM)	50 µg/mL (≈ 140 µM)	6.25 µg/mL (≈ 17.5 µM)	1.56 µg/mL (≈ 4.37 µM)	6.25 µg/mL (≈ 17.5 µM)
COc1ccc(C2CC(c3ccc(Br)cc3)=NN2C(C)=O)cc1 (stereo unspecified)	25 µg/mL (≈ 67 µM)	50 µg/mL (≈ 134 µM)	6.25 µg/mL (≈ 16.7 µM)	12.5 µg/mL (≈ 33.5 µM)	1.56 µg/mL (≈ 4.18 µM)	3.12 µg/mL (≈ 8.37 µM)
CC(=O)N1N=C(c2ccc(Br)cc2)CC1c1ccccc1Cl (stereo unspecified)	25 µg/mL (≈ 66.2 µM)	12.5 µg/mL (≈ 33.1 µM)	50 µg/mL (≈ 132 µM)	25 µg/mL (≈ 66.2 µM)	6.25 µg/mL (≈ 16.5 µM)	3.12 µg/mL (≈ 8.27 µM)
CC(=O)N1N=C(c2ccc(Br)cc2)CC1c1ccccc1 (stereo unspecified)	50 µg/mL (≈ 146 µM)	12.5 µg/mL (≈ 36.4 µM)	25 µg/mL (≈ 72.8 µM)	6.25 µg/mL (≈ 18.2 µM)	12.5 µg/mL (≈ 36.4 µM)	> 50 µg/mL
COc1cc(OC)cc(C2CC(c3ccc(Br)cc3)=NN2C(C)=O)c1 (stereo unspecified)	50 µg/mL (≈ 124 µM)	50 µg/mL (≈ 124 µM)	25 µg/mL (≈ 62 µM)	6.25 µg/mL (≈ 15.5 µM)	3.12 µg/mL (≈ 7.75 µM)	12.5 µg/mL (≈ 31 µM)
CC(=O)N1N=C(c2ccccc2F)CC1c1ccc(F)cc1 (stereo unspecified)	25 µg/mL (≈ 83.2 µM)	50 µg/mL (≈ 166 µM)	50 µg/mL (≈ 166 µM)	> 50 µg/mL	12.5 µg/mL (≈ 41.6 µM)	> 50 µg/mL
CC(=O)N1N=C(c2ccccc2F)CC1c1ccc(Cl)cc1 (stereo unspecified)	12.5 µg/mL (≈ 39.5 µM)	25 µg/mL (≈ 78.9 µM)	12.5 µg/mL (≈ 39.5 µM)	> 50 µg/mL	12.5 µg/mL (≈ 39.5 µM)	> 50 µg/mL
CC(=O)N1N=C(c2ccccc2F)CC1c1ccc(Br)cc1 (stereo unspecified)	25 µg/mL (≈ 69.2 µM)	25 µg/mL (≈ 69.2 µM)	25 µg/mL (≈ 69.2 µM)	25 µg/mL (≈ 69.2 µM)	12.5 µg/mL (≈ 34.6 µM)	12.5 µg/mL (≈ 34.6 µM)
CC(=O)N1N=C(c2ccccc2F)CC1c1ccc(C)cc1 (stereo unspecified)	25 µg/mL (≈ 84.4 µM)	25 µg/mL (≈ 84.4 µM)	25 µg/mL (≈ 84.4 µM)	> 50 µg/mL	> 50 µg/mL	12.5 µg/mL (≈ 42.2 µM)
CC(=O)N1N=C(c2ccc(Cl)cc2)CC1c1ccc(F)cc1 (stereo unspecified)	12.5 µg/mL (≈ 39.5 µM)	25 µg/mL (≈ 78.9 µM)	1.56 µg/mL (≈ 4.93 µM)	12.5 µg/mL (≈ 39.5 µM)	12.5 µg/mL (≈ 39.5 µM)	25 µg/mL (≈ 78.9 µM)
CC(=O)N1N=C(c2ccc(Cl)cc2)CC1c1ccc(Cl)cc1 (stereo unspecified)	12.5 µg/mL (≈ 37.5 µM)	12.5 µg/mL (≈ 37.5 µM)	6.25 µg/mL (≈ 18.8 µM)	25 µg/mL (≈ 75 µM)	6.25 µg/mL (≈ 18.8 µM)	25 µg/mL (≈ 75 µM)
COc1ccc(C2CC(c3ccc(Cl)cc3)=NN2C(C)=O)cc1 (stereo unspecified)	12.5 µg/mL (≈ 38 µM)	25 µg/mL (≈ 76 µM)	25 µg/mL (≈ 76 µM)	> 50 µg/mL	25 µg/mL (≈ 76 µM)	> 50 µg/mL
CC(=O)N1N=C(c2ccc(Br)cc2)CC1c1ccc(F)cc1 (stereo unspecified)	25 µg/mL (≈ 69.2 µM)	12.5 µg/mL (≈ 34.6 µM)	1.56 µg/mL (≈ 4.32 µM)	1.56 µg/mL (≈ 4.32 µM)	3.12 µg/mL (≈ 8.65 µM)	12.5 µg/mL (≈ 34.6 µM)
CC(=O)N1N=C(c2ccc(Br)cc2)CC1c1ccc(Cl)cc1 (stereo unspecified)	25 µg/mL (≈ 66.2 µM)	25 µg/mL (≈ 66.2 µM)	6.25 µg/mL (≈ 16.5 µM)	3.12 µg/mL (≈ 8.27 µM)	3.12 µg/mL (≈ 8.27 µM)	12.5 µg/mL (≈ 33.1 µM)
CC(=O)N1N=C(c2ccccc2F)CC1c1ccccc1 (stereo unspecified)	12.5 µg/mL (≈ 44.3 µM)	> 50 µg/mL	25 µg/mL (≈ 88.6 µM)	25 µg/mL (≈ 88.6 µM)	25 µg/mL (≈ 88.6 µM)	> 50 µg/mL
CC(=O)N1N=C(c2ccc(Cl)cc2)CC1c1ccccc1 (stereo unspecified)	12.5 µg/mL (≈ 41.8 µM)	25 µg/mL (≈ 83.7 µM)	25 µg/mL (≈ 83.7 µM)	> 50 µg/mL	> 50 µg/mL	12.5 µg/mL (≈ 41.8 µM)

Further molecules by falling MIC (Bacillus subtilis), results first:

MIC (Bacillus subtilis)	MIC (Escherichia coli)	MIC (Enterococcus faecalis)	MIC (Staphylococcus aureus)	MIC (Pseudomonas aeruginosa)	MIC (Enterobacter cloacae)	SMILES
12.5 µg/mL (≈ 31.8 µM)	> 50 µg/mL	50 µg/mL (≈ 127 µM)	25 µg/mL (≈ 63.6 µM)	12.5 µg/mL (≈ 31.8 µM)	12.5 µg/mL (≈ 31.8 µM)	COc1cc(OC)cc(C2CC(c3ccc(Cl)c(Cl)c3)=NN2C(C)=O)c1 (stereo unspecified)
12.5 µg/mL (≈ 29.6 µM)	25 µg/mL (≈ 59.2 µM)	25 µg/mL (≈ 59.2 µM)	3.12 µg/mL (≈ 7.4 µM)	6.25 µg/mL (≈ 14.8 µM)	25 µg/mL (≈ 59.2 µM)	CC(=O)N1N=C(c2ccc(Br)cc2)CC1c1ccc(Br)cc1 (stereo unspecified)
6.25 µg/mL (≈ 18 µM)	> 50 µg/mL	12.5 µg/mL (≈ 36 µM)	> 50 µg/mL	25 µg/mL (≈ 72 µM)	25 µg/mL (≈ 72 µM)	CC(=O)N1N=C(c2ccc(Cl)c(Cl)c2)CC1c1ccc(C)cc1 (stereo unspecified)
6.25 µg/mL (≈ 18.8 µM)	12.5 µg/mL (≈ 37.5 µM)	12.5 µg/mL (≈ 37.5 µM)	> 50 µg/mL	25 µg/mL (≈ 75 µM)	25 µg/mL (≈ 75 µM)	CC(=O)N1N=C(c2ccc(Cl)c(Cl)c2)CC1c1ccccc1 (stereo unspecified)
6.25 µg/mL (≈ 18.3 µM)	12.5 µg/mL (≈ 36.5 µM)	12.5 µg/mL (≈ 36.5 µM)	25 µg/mL (≈ 73 µM)	12.5 µg/mL (≈ 36.5 µM)	> 50 µg/mL	COc1cc(OC)cc(C2CC(c3ccccc3F)=NN2C(C)=O)c1 (stereo unspecified)
6.25 µg/mL (≈ 20 µM)	12.5 µg/mL (≈ 40 µM)	12.5 µg/mL (≈ 40 µM)	25 µg/mL (≈ 80 µM)	25 µg/mL (≈ 80 µM)	25 µg/mL (≈ 80 µM)	COc1ccc(C2CC(c3ccccc3F)=NN2C(C)=O)cc1 (stereo unspecified)
6.25 µg/mL (≈ 19.7 µM)	12.5 µg/mL (≈ 39.5 µM)	25 µg/mL (≈ 78.9 µM)	12.5 µg/mL (≈ 39.5 µM)	12.5 µg/mL (≈ 39.5 µM)	12.5 µg/mL (≈ 39.5 µM)	CC(=O)N1N=C(c2ccccc2F)CC1c1ccccc1Cl (stereo unspecified)
6.25 µg/mL (≈ 16.5 µM)	12.5 µg/mL (≈ 33.1 µM)	6.25 µg/mL (≈ 16.5 µM)	25 µg/mL (≈ 66.2 µM)	> 50 µg/mL	> 50 µg/mL	CC(=O)N1N=C(c2ccc(Cl)cc2)CC1c1ccc(Br)cc1 (stereo unspecified)
6.25 µg/mL (≈ 20 µM)	12.5 µg/mL (≈ 40 µM)	25 µg/mL (≈ 79.9 µM)	12.5 µg/mL (≈ 40 µM)	12.5 µg/mL (≈ 40 µM)	12.5 µg/mL (≈ 40 µM)	CC(=O)N1N=C(c2ccc(Cl)cc2)CC1c1ccc(C)cc1 (stereo unspecified)
6.25 µg/mL (≈ 18.8 µM)	12.5 µg/mL (≈ 37.5 µM)	50 µg/mL (≈ 150 µM)	25 µg/mL (≈ 75 µM)	12.5 µg/mL (≈ 37.5 µM)	12.5 µg/mL (≈ 37.5 µM)	CC(=O)N1N=C(c2ccc(Cl)cc2)CC1c1ccccc1Cl (stereo unspecified)
6.25 µg/mL (≈ 17.4 µM)	12.5 µg/mL (≈ 34.8 µM)	50 µg/mL (≈ 139 µM)	6.25 µg/mL (≈ 17.4 µM)	25 µg/mL (≈ 69.7 µM)	> 50 µg/mL	COc1cc(OC)cc(C2CC(c3ccc(Cl)cc3)=NN2C(C)=O)c1 (stereo unspecified)
6.25 µg/mL (≈ 17.6 µM)	12.5 µg/mL (≈ 35.3 µM)	50 µg/mL (≈ 141 µM)	12.5 µg/mL (≈ 35.3 µM)	12.5 µg/mL (≈ 35.3 µM)	6.25 µg/mL (≈ 17.6 µM)	COc1ccc(C2=NN(C(C)=O)C(c3cc(OC)cc(OC)c3)C2)cc1 (stereo unspecified)
3.12 µg/mL (≈ 8.5 µM)	12.5 µg/mL (≈ 34 µM)	12.5 µg/mL (≈ 34 µM)	25 µg/mL (≈ 68 µM)	12.5 µg/mL (≈ 34 µM)	25 µg/mL (≈ 68 µM)	CC(=O)N1N=C(c2ccc(Cl)c(Cl)c2)CC1c1ccccc1Cl (stereo unspecified)
3.12 µg/mL (≈ 8.6 µM)	> 50 µg/mL	6.25 µg/mL (≈ 17.2 µM)	25 µg/mL (≈ 68.8 µM)	12.5 µg/mL (≈ 34.4 µM)	25 µg/mL (≈ 68.8 µM)	COc1ccc(C2CC(c3ccc(Cl)c(Cl)c3)=NN2C(C)=O)cc1 (stereo unspecified)
1.56 µg/mL (≈ 4.45 µM)	12.5 µg/mL (≈ 35.6 µM)	1.56 µg/mL (≈ 4.45 µM)	12.5 µg/mL (≈ 35.6 µM)	12.5 µg/mL (≈ 35.6 µM)	12.5 µg/mL (≈ 35.6 µM)	CC(=O)N1N=C(c2ccc(Cl)c(Cl)c2)CC1c1ccc(F)cc1 (stereo unspecified)
1.56 µg/mL (≈ 3.79 µM)	12.5 µg/mL (≈ 30.3 µM)	3.12 µg/mL (≈ 7.58 µM)	> 50 µg/mL	25 µg/mL (≈ 60.7 µM)	12.5 µg/mL (≈ 30.3 µM)	CC(=O)N1N=C(c2ccc(Cl)c(Cl)c2)CC1c1ccc(Br)cc1 (stereo unspecified)
0.78 µg/mL (≈ 2.12 µM)	25 µg/mL (≈ 68 µM)	6.25 µg/mL (≈ 17 µM)	25 µg/mL (≈ 68 µM)	25 µg/mL (≈ 68 µM)	> 50 µg/mL	CC(=O)N1N=C(c2ccc(Cl)c(Cl)c2)CC1c1ccc(Cl)cc1 (stereo unspecified)
